A short description of this data set: Measurement of Liposomal pKa with TNS, empty LNP (Experimental Example 11). The conditions noted are these: cationic lipid:DOPC:Chol:DMG-PEG2k=52.5:7.5:40:1.5. It counts as physicochemical. The method, then:
20 mM Citrate buffer, sodium phosphate buffer and tris HCl buffer each containing NaCl at a final concentration of 150 mM and adjusted to various pHs within the range of pH 3.0-10.0 were prepared. LNP prepared in [Experimental Example 3], 1, was diluted with PBS to a lipid concentration of 0.5 mM. TNS (manufactured by Sigma) was diluted with ultrapure water to 0.6 mM. TNS solution (2 μL), various LNP solutions (12 μL), and buffers adjusted to various pHs (186 μL) were added to a black 96 well plate. The plate was protected from light and shaken at 400 rpm for 10 min. The fluorescence intensity (excitation: 321 nm/emission: 447 nm) was measured using a plate reader (manufactured by TECAN). The relative fluorescence intensity was calculated as a percentage, with the maximum value of the fluorescence intensity in each LNP being 100% and the minimum value being 0%. Furthermore, the pH at which the relative fluorescence intensity was 50% was taken as Liposomal pKa.
For the evaluation of Liposomal pKa, empty LNP not encapsulating nucleic acid was used. The empty LNP (cationic lipid:DOPC:Chol:DMG-PEG2k=52.5:7.5:40:1.5) was produced by performing particle preparation in the method described in [Experimental Example 10] without using a nucleic acid.
Liposomal pKa was calculated by the method described in [Experimental Example 3].

SMILES strings stand for the structures.

Regarding `CCCCCCCC/C=C\CCCCCCCC(=O)Oc1ccc(CC(=O)NCCC2CCN(CCSSCCN3CCC(CCNC(=O)Cc4ccc(OC(=O)CCCCCCC/C=C\CCCCCCCC)cc4)CC3)CC2)cc1` [O-Ph-amide-P4C2], the “Liposomal pKa” value is “improved pKa”.

These data come from patent publication US12064513B2, “Cationic lipid exhibiting improved intracellular dynamics” (NOF CORPORATION, priority 2018, dated 2024).
